We go through five molecules from patent US9518018B2, “3-alkoxy, thioalkyl and amino-4-amino-6-(substituted)picolinates and their use as herbicides” (Dow AgroSciences LLC, priority 2011, dated 2016).

The test system of assay [1] is TRZAS: wheat, spring (Triticum aestivum). Kind of assay: Post-Emergent Test I herbicidal activity. In kind it is in vivo. The note with it: for GR20 TRZAS: Table 4, growth reduction of 20% of plant growth; for GR20 TRZAS / GR50 TRZAS / GR80 TRZAS: 14 days after application, probit analysis; for GR50 TRZAS: Table 4, growth reduction of 50% of plant growth; for GR80 TRZAS: Table 4, growth reduction of 80% of plant growth. Put shortly:
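Greenhouse-grown seedlings (peat-based mix, pH 6.0–6.8; ~15 h photoperiod, 23–29 °C day) were sprayed post-emergence at first/second true-leaf stage with compound in acetone/DMSO/aqueous crop-oil–surfactant carrier at 187 L/ha, using a twofold rate series. Injury was scored visually after 14 d (0–100%); GR20/GR50/GR80 derived by probit analysis.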

Assay [2] deals with POLCO: buckwheat, wild (Polygonum convolvulus). Kind of assay: Post-Emergent Test I herbicidal activity. Particulars: for GR20 POLCO: Table 4, growth reduction of 20% of plant growth; for GR20 POLCO / GR50 POLCO / GR80 POLCO: 14 days after application, probit analysis; for GR50 POLCO: Table 4, growth reduction of 50% of plant growth; for GR80 POLCO: Table 4, growth reduction of 80% of plant growth. In kind it is in vivo. Put shortly:
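Post-emergence foliar application to young greenhouse plants at 187 L/ha, five rates down to 1/16× of the top rate. Percent injury is assessed visually two weeks later against untreated plants.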

Bounds are passed on as bounds.

As for `COC(=O)c1nc(Cl)cc(N)c1OC` [Compound 1, methyl 4-amino-6-chloro-3-methoxypicolinate], the “Visual Growth Reduction (%)-14 Days after Application TRZAS” value in assay [1] (Table 4, 17.5 g ai/ha) is 0%; in assay [1] (Table 4, 35 g ai/ha), 0%; in assay [1] (Table 4, 70 g ai/ha) it was 0%; in assay [1] (Table 4, 140 g ai/ha), 0%; in assay [1] (Table 4, 280 g ai/ha), 0%. Also, the “GR20 TRZAS” value in assay [1] is given as over 280 g ai/ha. Also, the “GR50 TRZAS” value in assay [1] is over 280 g ai/ha. Moreover, the “GR80 TRZAS” value in assay [1] is over 280 g ai/ha. In addition, the “Visual Growth Reduction (%)-14 Days after Application POLCO” value in assay [2] (Table 4, 17.5 g ai/ha) is reported as 100%; in assay [2] (Table 4, 35 g ai/ha), 100%; in assay [2] (Table 4, 70 g ai/ha), 100%; in assay [2] (Table 4, 140 g ai/ha), 95%; in assay [2] (Table 4, 280 g ai/ha) it was 100%. For the same molecule, the “GR20 POLCO” value in assay [2] was under 17.5 g ai/ha. The “GR50 POLCO” value in assay [2] is under 17.5 g ai/ha. Also, the “GR80 POLCO” value in assay [2] is recorded as under 17.5 g ai/ha.
As for `COC(=O)c1nc(-c2ccc(Cl)cc2F)cc(N)c1OC` [Compound 6, Methyl 4-amino-6-(4-chloro-2-fluorophenyl)-3-methoxypicolinate], the “Visual Growth Reduction (%)-14 Days after Application TRZAS” value is recorded as 0% in assay [1] (Table 4, 8.75 g ai/ha); 0% in assay [1] (Table 4, 17.5 g ai/ha); 15% in assay [1] (Table 4, 35 g ai/ha); 45% in assay [1] (Table 4, 70 g ai/ha); 50% in assay [1] (Table 4, 140 g ai/ha). The “GR20 TRZAS” value in assay [1] is listed as 47.5 g ai/ha. Also, the “GR50 TRZAS” value in assay [1] is on record as 109 g ai/ha. Also, the “GR80 TRZAS” value in assay [1] was over 140 g ai/ha. Further, the “Visual Growth Reduction (%)-14 Days after Application POLCO” value in assay [2] (Table 4, 8.75 g ai/ha) turned out to be 0%; in assay [2] (Table 4, 17.5 g ai/ha), 100%; in assay [2] (Table 4, 70 g ai/ha) it was 100%; in assay [2] (Table 4, 140 g ai/ha), 100%. Moreover, the “GR20 POLCO” value in assay [2] came out at 10.7 g ai/ha. In addition, the “GR50 POLCO” value in assay [2] stood at 12.4 g ai/ha. Also, the “GR80 POLCO” value in assay [2] came to 14.3 g ai/ha.
On to `COc1c(C(=O)O)nc(-c2ccc(Cl)c(OC)c2F)c(F)c1N` [Compound 45, 4-amino-6-(4-chloro-2-fluoro-3-methoxyphenyl)-5-fluoro-3-methoxypicolinic acid], for which the “Visual Growth Reduction (%)-14 Days after Application TRZAS” value in assay [1] (Table 4, 8.75 g ai/ha) turned out to be 10%; in assay [1] (Table 4, 17.5 g ai/ha), 20%; in assay [1] (Table 4, 35 g ai/ha), 55%; in assay [1] (Table 4, 70 g ai/ha), 60%; in assay [1] (Table 4, 140 g ai/ha), 65%. In addition, in assay [1], the “GR20 TRZAS” value worked out at 14.3 g ai/ha. Also, the “GR50 TRZAS” value in assay [1] turned out to be 53.5 g ai/ha. The “GR80 TRZAS” value in assay [1] is over 140 g ai/ha. In addition, the “Visual Growth Reduction (%)-14 Days after Application POLCO” value in assay [2] (Table 4, 8.75 g ai/ha) worked out at 100%; in assay [2] (Table 4, 17.5 g ai/ha), 100%; in assay [2] (Table 4, 35 g ai/ha), 100%; in assay [2] (Table 4, 70 g ai/ha) it was 100%; in assay [2] (Table 4, 140 g ai/ha), 100%. Further, the “GR20 POLCO” value in assay [2] is under 8.75 g ai/ha. Also, the “GR50 POLCO” value in assay [2] was under 8.75 g ai/ha. Also, the “GR80 POLCO” value in assay [2] was under 8.75 g ai/ha.
Consider `COc1c(N)cc(-c2ccc(Cl)cc2)nc1C(=O)O` [Compound 46], for which the “Visual Growth Reduction (%)-14 Days after Application TRZAS” value in assay [1] (Table 4, 17.5 g ai/ha) turned out to be 15%; in assay [1] (Table 4, 35 g ai/ha), 20%; in assay [1] (Table 4, 70 g ai/ha), 40%; in assay [1] (Table 4, 140 g ai/ha) it was 70%; in assay [1] (Table 4, 280 g ai/ha), 75%. Moreover, the “GR20 TRZAS” value in assay [1] came out at 27.1 g ai/ha. The “GR50 TRZAS” value in assay [1] turned out to be 91.7 g ai/ha. In assay [1], the “GR80 TRZAS” value was determined as 310 g ai/ha. Also, the “Visual Growth Reduction (%)-14 Days after Application POLCO” value in assay [2] (Table 4, 17.5 g ai/ha) came out at 80%; in assay [2] (Table 4, 35 g ai/ha), 90%; in assay [2] (Table 4, 70 g ai/ha), 100%; in assay [2] (Table 4, 140 g ai/ha) it was 100%; in assay [2] (Table 4, 280 g ai/ha), 100%. The “GR20 POLCO” value in assay [2] is under 17.5 g ai/ha. The “GR50 POLCO” value in assay [2] is listed as under 17.5 g ai/ha. Further, the “GR80 POLCO” value in assay [2] was determined as 18.6 g ai/ha.
Consider `COc1c(C(=O)O)nc(-c2ccc(Cl)cc2)c(F)c1N` [Compound 47], for which the “Visual Growth Reduction (%)-14 Days after Application TRZAS” value stood at 0% in assay [1] (Table 4, 8.75 g ai/ha); 15% in assay [1] (Table 4, 17.5 g ai/ha); 30% in assay [1] (Table 4, 35 g ai/ha); 45% in assay [1] (Table 4, 70 g ai/ha); 50% in assay [1] (Table 4, 140 g ai/ha). In addition, in assay [1], the “GR20 TRZAS” value stood at 30.6 g ai/ha. Also, the “GR50 TRZAS” value in assay [1] was found to be 98.6 g ai/ha. Also, the “GR80 TRZAS” value in assay [1] is listed as over 140 g ai/ha. Further, the “Visual Growth Reduction (%)-14 Days after Application POLCO” value in assay [2] (Table 4, 8.75 g ai/ha) was 100%; in assay [2] (Table 4, 17.5 g ai/ha) it was 100%; in assay [2] (Table 4, 35 g ai/ha) it was 100%; in assay [2] (Table 4, 70 g ai/ha), 100%; in assay [2] (Table 4, 140 g ai/ha), 100%. The “GR20 POLCO” value in assay [2] is under 8.75 g ai/ha. The “GR50 POLCO” value in assay [2] is under 8.75 g ai/ha. Besides, in assay [2], the “GR80 POLCO” value is under 8.75 g ai/ha.
